Results on nine molecules are retold here after patent US11633415B2, “Compounds and methods useful for treating or preventing cancers” (priority 2017, dated 2023).

Molecules are shown by their SMILES. Read-outs that look alike come from different tables or passages of the source.

Assay [1] deals with GST-tagged full-length human CK1α (Homo sapiens (Human), UniProt P48729). In words: Kinase enzymatic assay, mobility shift on LabChip system (AC50). To be noted: mean AC50; 5 μM ATP; 1 μM Profiler Pro FL-Peptide 16 substrate. In kind it is biochemical. Here is the method: (§1) Enzymatic assays were performed using a mobility shift assay on the LabChip system. Purified kinase protein was incubated with ATP, substrate, and assay buffer (20 mM Hepes—pH 7.5; 5 mM MgCl2, and 0.01% Triton X-100). The assay reaction was initiated with 5 μM ATP and with each compound present. Compounds were tested at the KM,ATP for the protein target (GST-tagged full-length human CK1α, available from Carna Biosciences, Japan) or over a range of ATP concentrations between 5 μM and 9 μM. […] AC50 values were determined using phosphorylated and unphosphorylated substrates.

Assay [2] relates to colorectal carcinoma cell line HT29. The assay is described as follows: Cell viability assay, HT29. In kind it is cell-based. Particulars: Homo sapiens, HT-29; HT29, 72 hours from plating (48 hours from compound administration). How it is done: (§2) Cell viability assays were conducted against colorectal carcinoma cell line HT29. Cells were plated in wells and at 24 hours after plating, compounds were added to determine their effect on cell viability at various dosages. After 48 hours from compound administration, the cell viability was determined and the IC50 values were calculated. […] FIG. 4B illustrates the results of another cell viability measurement and IC50 value for Compound 1 assessed by ATP abundance on HT29 at 5 days.

The target of assay [3] is CSNK1D (Homo sapiens (Human), UniProt P48730). In words: Kinomescan competition binding assay, confirmatory Kd. Particulars: confirmatory testing. An excerpt: (§3) The Kinomescan assay is a site-directed small molecule competition binding assay to quantitatively measure interactions between test compounds and more than 450 kinase assays. The assay employs DNA-tagged kinase proteins and a bead-immobilized kinase ligand. Active test compounds compete with the immobilized ligand and decrease the amount of bead-bound kinase. The assay result is detected using a multiplex quantitative PCR approach.

Assay [4] addresses T1, CSNK1A1 (Homo sapiens (Human), UniProt P48729). In words: Kinase enzymatic IC50 (Carna Biosciences mobility shift assay). In kind it is biochemical. Here is the method:
as §1

For assay [5], the system named is HT-29. The assay is described as follows: Cell viability by ATP abundance at 5 days (Cell Titer Glo). Type of assay: cell-based. How it is done: In addition to its role as a target in hematologic malignancies, CSNK1A1 expression is also essential to certain epithelial cancer cell lines. […] Results from each independent RNA interference construct were summarized into a single gene-level score, and the colorectal distribution of sensitivities was evaluated against the other lineages by the Mann-Whitney test as shown in FIG. 4A. […] Cell viability was assessed by ATP abundance at 5 days using the Cell Titer Glo assay.
as §2
A general note: Cellular ATP, detected with luciferase, serves as a proxy for viable cell number.

In assay [6] the test system is more than 450 kinase assays. The assay is described as follows: Kinome-wide profiling using the Kinomescan assay. In kind it is binding.
From the text: as §3

The target in assay [7] is T1, CSNK1A1. In words: Kinomescan competition binding assay, confirmatory Kd. The text has this:
The Kinomescan assay is a site-directed small molecule competition binding assay to quantitatively measure interactions between test compounds and more than 450 kinase assays. The assay employs DNA-tagged kinase proteins and a bead-immobilized kinase ligand. […] The assay result is detected using a multiplex quantitative PCR approach.

For assay [8], the target named is insulin receptor kinase (Homo sapiens (Human), UniProt P06213). To be noted: range stated jointly for PKA and insulin receptor kinase; cited from earlier work.
Assay [9] addresses protein kinase A (PKA). To be noted: range stated jointly for PKA and insulin receptor kinase; cited from earlier work.
Where [10] appears, read: Table 1, CSNK1A1 inhibitors, read-out: IC50.

GST-tagged full-length human CK1α, sequence (P48729 whole entry): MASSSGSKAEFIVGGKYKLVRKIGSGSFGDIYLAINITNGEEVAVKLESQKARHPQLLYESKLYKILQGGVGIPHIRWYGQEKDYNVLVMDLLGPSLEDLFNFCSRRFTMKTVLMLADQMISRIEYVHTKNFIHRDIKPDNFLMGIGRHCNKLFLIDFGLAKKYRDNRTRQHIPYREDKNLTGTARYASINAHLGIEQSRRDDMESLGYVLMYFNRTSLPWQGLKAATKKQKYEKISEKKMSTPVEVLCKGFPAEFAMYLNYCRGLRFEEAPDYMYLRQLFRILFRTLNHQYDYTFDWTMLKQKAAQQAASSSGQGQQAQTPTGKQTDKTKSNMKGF
T1 sequence (P48729 whole entry): as above
insulin receptor kinase, sequence (P06213 28-1382): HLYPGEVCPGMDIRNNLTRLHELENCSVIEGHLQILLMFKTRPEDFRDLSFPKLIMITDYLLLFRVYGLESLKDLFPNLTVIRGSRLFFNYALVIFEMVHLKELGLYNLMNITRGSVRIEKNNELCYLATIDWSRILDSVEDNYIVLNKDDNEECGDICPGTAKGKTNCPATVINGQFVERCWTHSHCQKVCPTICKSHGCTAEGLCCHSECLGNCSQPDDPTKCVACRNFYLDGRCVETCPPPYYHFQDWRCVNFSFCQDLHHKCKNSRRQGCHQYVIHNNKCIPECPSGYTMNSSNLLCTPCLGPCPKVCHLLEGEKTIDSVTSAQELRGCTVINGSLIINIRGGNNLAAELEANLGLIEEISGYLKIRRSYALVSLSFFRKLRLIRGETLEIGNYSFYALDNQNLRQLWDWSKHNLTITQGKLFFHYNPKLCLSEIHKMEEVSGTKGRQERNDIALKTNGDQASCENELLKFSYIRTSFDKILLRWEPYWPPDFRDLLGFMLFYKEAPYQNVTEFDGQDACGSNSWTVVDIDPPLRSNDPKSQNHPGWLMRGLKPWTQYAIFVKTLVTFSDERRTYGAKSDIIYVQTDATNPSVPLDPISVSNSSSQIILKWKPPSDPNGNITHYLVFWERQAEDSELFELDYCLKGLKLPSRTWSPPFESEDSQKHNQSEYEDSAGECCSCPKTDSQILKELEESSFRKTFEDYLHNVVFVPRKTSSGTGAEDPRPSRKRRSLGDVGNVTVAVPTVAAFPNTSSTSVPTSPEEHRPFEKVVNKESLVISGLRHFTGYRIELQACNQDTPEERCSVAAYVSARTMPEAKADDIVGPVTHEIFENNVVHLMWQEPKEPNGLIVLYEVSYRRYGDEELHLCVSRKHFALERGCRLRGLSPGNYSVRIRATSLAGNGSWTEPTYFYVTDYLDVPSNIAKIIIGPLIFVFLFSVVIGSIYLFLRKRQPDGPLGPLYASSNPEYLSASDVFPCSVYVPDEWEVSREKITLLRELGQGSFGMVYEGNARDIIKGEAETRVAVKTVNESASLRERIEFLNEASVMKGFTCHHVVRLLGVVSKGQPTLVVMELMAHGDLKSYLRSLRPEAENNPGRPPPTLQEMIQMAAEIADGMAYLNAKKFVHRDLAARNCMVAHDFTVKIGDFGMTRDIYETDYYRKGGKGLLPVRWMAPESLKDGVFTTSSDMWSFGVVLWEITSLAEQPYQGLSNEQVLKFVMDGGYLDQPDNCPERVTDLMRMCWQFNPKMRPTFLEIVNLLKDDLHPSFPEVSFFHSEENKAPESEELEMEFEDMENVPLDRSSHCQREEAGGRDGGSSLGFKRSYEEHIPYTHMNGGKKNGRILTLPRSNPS
CSNK1D, sequence (P48730 whole entry): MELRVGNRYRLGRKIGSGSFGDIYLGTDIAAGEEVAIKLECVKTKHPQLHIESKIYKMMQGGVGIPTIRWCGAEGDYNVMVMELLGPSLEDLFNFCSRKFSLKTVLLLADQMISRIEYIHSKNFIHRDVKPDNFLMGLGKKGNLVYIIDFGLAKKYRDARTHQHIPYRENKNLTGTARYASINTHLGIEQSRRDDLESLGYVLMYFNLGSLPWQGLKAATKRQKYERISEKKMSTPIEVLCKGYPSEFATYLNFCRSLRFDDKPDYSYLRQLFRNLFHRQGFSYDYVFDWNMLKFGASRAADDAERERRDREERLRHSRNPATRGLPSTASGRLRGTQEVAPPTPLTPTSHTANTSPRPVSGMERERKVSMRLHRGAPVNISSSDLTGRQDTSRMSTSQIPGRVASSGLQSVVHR

On to `N#C/C(C(=O)OCC1CCCCC1)=C1/Nc2ccc(-c3ccc(O)cc3)cc2N=C1N1CCNCC1`, for which the AC50 in assay [1] came out at 0.013 µM. The molecule further registered an IC50 in assay [2] of 0.472 µM.

For the molecule `N#C/C(C(=O)OCC1CCCCC1)=C1/Nc2ccc(-c3cccc(F)c3)cc2N=C1N1CCNCC1`, the AC50 in [1] is 0.108 µM. In assay [2], this molecule registered an IC50 of 2.31 µM.

Take `N#C/C(C(=O)OCC1CCCCC1)=C1/Nc2ccc(-c3ccccc3O)cc2N=C1N1CCNCC1`: the AC50 in assay [1] worked out at 0.043 µM. This molecule also showed an IC50 in assay [2] of 0.837 µM.

Regarding `CN1CCN(c2nc3ccccc3nc2C(C#N)C(=O)OC2CCCCC2)CC1` (stereo not shown) [drawing 113], the AC50 in [1] was 3.5 µM. Further, inhibition in assay [2] was half-maximal at 10000 µM (IC50).

Turning to `CCC(CC)COC(=O)C(C#N)c1nc2ccccc2nc1N1CCNC(C)(C)C1` (stereo not shown), the AC50 in assay [1] amounted to 0.159 µM. Moreover, it took 2.13 µM to reach half-maximal inhibition in assay [2] (IC50).

For the molecule `N#C/C(C(=O)OCC1CCCCC1)=C1/Nc2ccc(-c3ccccc3F)cc2N=C1N1CCNCC1`, the half-maximal activity concentration (AC50) in assay [1] was determined as 0.043 µM. In [2], this molecule had an IC50 of 1.9 µM.

For the molecule `N#C/C(C(=O)OCC1CCCCC1)=C1/Nc2ccc(-c3ccc(F)cc3)cc2N=C1N1CCNCC1`, the AC50 in assay [1] is 0.074 µM. In [2], this molecule came in with an IC50 of 1.78 µM.

Turning to `CCN1CCN(c2nc3ccccc3nc2C(C#N)C(=O)OC2CCCCC2)CC1` (stereo not shown) [compound 1, cyclohexyl 2-cyano-2-(3-(4-ethylpiperazin-1-yl)quinoxalin-2-yl)acetate], the dissociation constant (Kd) in assay [3] turned out to be 3.2 µM; in assay [7] it was 1.7 µM. Moreover, the IC50 stood at 10.1 µM in assay [4] and 12.9 µM in [4] (setting [10]). Moreover, the “cell viability of HT-29” value in assay [5] is recorded as “inhibited”. Besides, the “binding specificity in kinome-wide profiling” value in assay [6] (450 kinases tested at a single dose of 10 μM) is “remarkable specificity for compound binding to CSNK1A1”. In addition, in assay [6] (out of over 400 kinases tested), the “number of kinases bound” value is reported as “six”.

For `Nc1ncnc2c1c(I)cn2[C@@H]1O[C@H](CO)[C@@H](O)[C@H]1O` [5-iodotubercidin, 5-Iodo-7-β-D-ribofuranosyl-7H-pyrrolo[2,3-d]pyrimidin-4-amine, reference compound], the IC50 is 0.287 µM in assay [4] (setting [10]); 0.29 µM in assay [4] (known inhibitors, background text (rounded Table 1 values), read-out: IC50 against CSNK1A1); 0.4 to 28 µM in assay [8]; 0.4 to 28 µM in assay [9].

What is called AC50 is the concentration at which the activity in the assay is half-maximal. What is called IC50 is the concentration that gives 50% inhibition. A word on the Kd: it is the equilibrium constant for the complex coming apart. High values mean weaker binding, low ones tighter binding.
